The test system of one data set is 10-mer complementary DNA. In words: Binding affinity for complementary DNA by Tm (UV/Vis). Particulars: aqueous buffer pH 7.16, 10 mM sodium phosphate, 100 mM NaCl; for Tm Value, 10-mer DNA against C-Terminal: duplex of PNA and 10-mer complementary DNA targeting the C-terminal of PNA; for Tm Value, 10-mer DNA against N-Terminal: duplex of PNA and 10-mer complementary DNA targeting the N-terminal of PNA. On the procedure: The PNA derivatives of Formula I were evaluated for their binding affinity for 10-mer DNAs complementarily targeting either the N-terminal or C-terminal. The binding affinity was assessed by Tm value for the duplex between PNA and 10-mer complementary DNA. The duplex between PNA derivatives and fully complementary DNAs show Tm values too high to be reliably determined in aqueous buffer solution, since the buffer solution tends to boil during the Tm measurement. Tm values for full length PNAs can be predicted and compared based on the Tm value for the duplex between PNA and 10-mer complementary DNA.
Tm values were determined on a UV/Vis spectrometer as follows. A mixed solution of […] PNA oligomer and 4 μM complementary 10-mer DNA in 4 mL aqueous buffer (pH 7.16, 10 mM sodium phosphate, 100 mM NaCl) in 15 mL polypropylene falcon tube was incubated at 90° C. for a few minute and slowly cooled down to ambient temperature. Then the solution was transferred into a 3 mL quartz UV cuvette equipped with an air-tight cap, and the cuvette was mounted on an Agilent 8453 UV/Visible spectrophotometer. The absorbance changes at 260 nm were recorded with increasing the temperature of the cuvette by either 0.5 or 1° C. per minute. From the absorbance vs temperature curve, the temperature showing the largest increase rate in absorbance was read out as the Tm between PNA and 10-mer DNA. The DNAs for Tm measurement were purchased from Bioneer (www.bioneer.com, Dajeon, Republic of Korea) and used without further purification.

A further data set relates to human ACC2 mRNA. The data set is described as follows: Inhibition of ACC2 mRNA formation in C2C12 (Real-Time qPCR). It counts as cell-based, mouse. The note with it: C2C12 cells, 24 hours; for reduction of ACC2 mRNA compared to control: standardized by GAPDH; for amount of ACC2 mRNA: 100 zM to 1 fM, concentration-dependently. On the procedure: “ASO 1” was evaluated by Real-Time qPCR for its ability to down-regulate the ACC2 mRNA formation in C2C12 as described below.
[Cell Culture & ASO Treatment] C2C12 cells (Cat. No. CRL-1772, ATCC) were maintained in Dulbecco Modified Eagle Medium (DMEM, Cat. No. 12-604F, Lonza) supplemented with 10% Fetal Bovine Serum (Cat. No. 10099-41, GIBCO) and 1% streptomycin/penicillin (Cat. No. 15140-122, GIBCO), which was grown at 37° C. and under 5% CO2 condition. C2C12 cells (2×10^5) stabilized for 24 hours in 60 mm culture dish were incubated for 24 hours with “ASO 1” at 0 (negative control) and 100 zM to 1 fM.
[RNA Extraction & cDNA Synthesis] Total RNA was extracted using RNeasy Mini kit (Qiagen, Cat. No. 714106) according to the manufacturer's instructions from “ASO 1” treated cells and cDNA was prepared from 400 ng of RNA by use of PrimeScript™ 1st strand cDNA Synthesis Kit (Takara, Cat. No. 6110A). To a mixture of 400 ng of RNA, 1 microliter of random hexamer, and 1 microliter of dNTP (10 mM) in PCR tube was added DEPC-treated water to a total volume of 10 microliter, which was reacted at 65° C. for 5 minutes. cDNA was synthesized by adding 10 microliter of PrimeScript RTase to the reaction mixture and reacting at 30° C. for 10 minutes and at 42° C. for 60 minutes, successively.
[Quantitative Real-Time PCR] In order to evaluate the expression level of […] ACC2 mRNA real-time qPCR was performed with synthesized cDNA by use of Tagman probe. The mixture of cDNA, Taqman probe (Thermo, Mm01204651), IQ supermix (BioRad, Cat. No. 170-8862), and nuclease free water in PCR tube was under reaction by use of CFX96 Touch Real-Time system (BioRad) according to the cycle conditions specified as follows: at 95° C. for 3 min (primary denaturation) followed by 50 cycles of 10 sec at 95° C. (denaturation) and 30 sec at 60° C. (annealing and polymerization). Fluorescence intensity was measured at the end of every cycle and the result of PCR was evaluated by the melting curve. After the threshold cycle (Ct) of each gene was standardized by that of GAPDH, the change of Ct was compared and analyzed.
“ASO 6” was evaluated by Real-Time qPCR for its ability to down-regulate the ACC2 mRNA formation in C2C12 as described below.
[Cell Culture & ASO Treatment] C2C12 cells (Cat. No. CRL-1772, ATCC) were maintained in Dulbecco Modified Eagle Medium (DMEM, Cat. No. 12-604F, Lonza) supplemented with 10% Fetal Bovine Serum (Cat. No. 10099-41, GIBCO) and 1% streptomycin/penicillin (Cat. No. 15140-122, GIBCO), which was grown at 37° C. and under 5% CO2 condition. C2C12 cells (2×10^5) stabilized for 24 hours in 60 mm culture dish were incubated for 24 hours with “ASO 6” at 0 (negative control) and 100 zM to 1 fM.
[RNA Extraction & cDNA Synthesis] Total RNA was extracted using RNeasy Mini kit (Qiagen, Cat. No. 714106) according to the manufacturer's instructions from “ASO 6” treated cells and cDNA was prepared from 400 ng of RNA by use of PrimeScript™ 1st strand cDNA Synthesis Kit (Takara, Cat. No. 6110A). To a mixture of 400 ng of RNA, 1 microliter of random hexamer, and 1 microliter of dNTP (10 mM) in PCR tube was added DEPC-treated water to a total volume of 10 microliter, which was reacted at 65° C. for 5 minutes. cDNA was synthesized by adding 10 microliter of PrimeScript RTase to the reaction mixture and reacting at 30° C. for 10 minutes and at 42° C. for 60 minutes, successively.
“ASO 5” was evaluated by the same method as described below.
[Cell Culture & ASO Treatment] C2C12 cells (Cat. No. CRL-1772, ATCC) were maintained in Dulbecco Modified Eagle Medium (DMEM, Cat. No. 12-604F, Lonza) supplemented with 10% Fetal Bovine Serum (Cat. No. 10099-41, GIBCO) and 1% streptomycin/penicillin (Cat. No. 15140-122, GIBCO), which was grown at 37° C. and under 5% CO2 condition. C2C12 cells (2×10^5) stabilized for 24 hours in 60 mm culture dish were incubated for 24 hours with “ASO 5” at 0 (negative control) and 100 zM to 1 fM.
[RNA Extraction & cDNA Synthesis] […]
In general terms: Quantitative PCR measures a nucleic acid by following its amplification.

The subject of the next data set is ACC2 exon 12. The data set is described as follows: Exon skipping of ACC2 mRNA in C2C12 (nested RT-PCR, electrophoresis, Sanger sequencing). Particulars: C2C12 cells, 5 hours, 0.1 aM to 1 fM. It counts as cell-based. On the procedure:
“ASO 1” was evaluated for its ability to induce the skipping of ACC2 “exon 12” in C2C12 cells as described below.
[Cell Culture & ASO Treatment] C2C12 cells (2×10^5) (Cat. No. CRL-1772, ATCC) were grown in 60 mm culture dish containing DMEM medium (Dulbecco Modified Eagle Medium: DMEM) (Cat. No. 12-604F, Lonza) supplemented with 10% FBS (Fetal Bovine Serum) (Cat. No. 10099-41, GIBCO) and 1% streptomycin/penicillin (Cat. No. 15140-122, GIBCO) under 5% CO2 atmosphere at 37° C. The cells were treated either with nothing (negative control) or with an aliquot of aqueous stock solution of “ASO 1” for 5 hours at 100 zM to 1 fM.
[RNA Extraction & Nested PCR] Total RNA was extracted using RNeasy Mini kit (Qiagen, Cat. No. 714106) according to the manufacturer's instructions from “ASO 1” treated cells and cDNA was prepared from 200 ng of RNA by use of SuperScript™ III One-Step RT-PCR System (Cat. No. 12574-018, Invitrogen). […]
[Identification of Exon Skipping Products Electrophoresis] […] The target bands from “ASO 1” treatment were collected and analyzed by Sanger Sequencing to evaluate exon skipping sequence.

“(N→C) Fethoc-AC(1O2)T-GA(5)C-GA(5)A-A(5)TG(5)-GC(1O2)-NH2 [ASO 4]”: in the data set on 10-mer complementary DNA, the “Tm Value, 10-mer DNA against C-Terminal” value worked out at 82.01 °C and the “Tm Value, 10-mer DNA against N-Terminal” value was determined as 80.01 °C.
Take “(N→C) Fethoc-CTG(6)-ACG(6)-AA(5)A-TG(6)G-C(1O2)C—NH2 (CTNACNANATNGNC; PNA with modified bases, Fethoc N-cap, C-amide; PNA modified oligonucleotide; (1)..(14) PNA modified oligonucleotide, human acetyl-CoA carboxylase2 targeted artificial sequence; (1)..(1) Carbamated N-terminal; modified_base (3)..(3) n is a, g, c, or t; modified_base (6)..(6) n is a, g, c, or t; modified_base (8)..(8) n is a, g, c, or t; modified_base (11)..(11) n is a, g, c, or t; modified_base (13)..(13) n is a, g, c, or t) [ASO 1, peptide nucleic acid derivative targeting the 5′ splice site of exon 12 in the human ACC2 pre-mRNA]”: the “reduction of ACC2 mRNA compared to control” value (“reduction of ACC2 mRNA” for short) in the data set on human ACC2 mRNA (1 fM) stood at 30%. The “amount of ACC2 mRNA” value in the data set on human ACC2 mRNA was “reduced”. The “Exon skipping (splice variant ACC2 mRNA)” value in the data set on ACC2 exon 12 was “concentration-dependently yielded the splice variant ACC2 mRNA lacking exon 11”. In the data set on 10-mer complementary DNA, the “Tm Value, 10-mer DNA against C-Terminal” value worked out at 79.60 °C and the “Tm Value, 10-mer DNA against N-Terminal” value is 72.80 °C.
In the case of “(N→C) Fethoc-TA(5)C(1O2)-TGA(5)-CGA(5)-AA(5)T-G(6)GC(1O2)-C—NH2 [ASO 2]”, in the data set on 10-mer complementary DNA, the “Tm Value, 10-mer DNA against C-Terminal” value came out at 82.01 °C and the “Tm Value, 10-mer DNA against N-Terminal” value is 82.99 °C.
As for “(N→C) Fethoc-CTG(6)-AC(1O2)G-A(5)AA(5)-TG(6)G-C(1O2)C—NH2 [ASO 6]”, the “reduction of ACC2 mRNA” value was 30% in the data set on human ACC2 mRNA (1 aM) and 50% in the data set with human ACC2 mRNA (1 fM). Further, the “amount of ACC2 mRNA” value with human ACC2 mRNA was “reduced”.
For “(N→C) Fethoc-CTG(6)-AC(1O2)G-A(5)AA(5)-TG(6)G-NH2 [ASO 5]”, the “reduction of ACC2 mRNA” value is given as 30% in the data set with human ACC2 mRNA (1 aM) and 42% in the data set with human ACC2 mRNA (1 fM). In the data set with human ACC2 mRNA, the “amount of ACC2 mRNA” value is “reduced”.
As for “(N→C) Fethoc-TA(5)C-TG(5)A-C(1O2)GA(5)-AA(5)T-G(5)G-NH2 [ASO 3]”, in the data set on 10-mer complementary DNA, the “Tm Value, 10-mer DNA against C-Terminal” value was 78.99 °C and the “Tm Value, 10-mer DNA against N-Terminal” value came to 76.03 °C.

For the origin of these results see US11739124B2, “Acetyl-CoA carbosylase2 antisense oligonucleotides” (OLIPASS CORPORATION, priority 2018, dated 2023).
